Test results taken from patent publication US20150337013A1, “NOVEL ANTIBACTERIAL AGENTS FOR THE TREATMENT OF GRAM POSITIVE INFECTIONS” (priority 2008, published 2015).
Where two headings read alike, the source gives them in different places.

Tests used:
[1] = tested on: Staphylococcus aureus SAU.399 (ATCC 43300), Methicillin and Oxacillin Resistant; format: cell-based
Summary of the method: (§1)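 Susceptibility is measured by modified CLSI broth microdilution using calcium-supplemented Mueller Hinton broth (50 mg/L) and an inoculum of 5×10^5 bacteria. MIC values in μg/mL mark the lowest concentration that leaves no visible turbidity.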

[2] = tested on: Enterococcus faecalis EFS.201 (ATCC 49452); format: cell-based
Summary of the method: as §1

[3] = tested on: Enterococcus faecium EFM.14 (ATCC 6569); format: cell-based
Summary of the method: as §1

[4] = tested on: Staphylococcus aureus SAU.42 (ATCC 29213); format: cell-based
Summary of the method: as §1

[5] = tested on: Enterococcus faecium EFM.384, Daptomycin resistant mutant (14-A); format: cell-based; settings: MHBc with 50 mg/L calcium, 18-20 hours at 37° C.
Summary of the method: as §1

[6] = tested on: Staphylococcus aureus SAU.278, Daptomycin resistant mutant (D10); format: cell-based; settings: MHBc with 50 mg/L calcium, 18-20 hours at 37° C.
Summary of the method: as §1

[7] = tested on: Enterococcus faecalis EFS.312, Daptomycin resistant mutant (EFA); format: cell-based; settings: MHBc with 50 mg/L calcium, 18-20 hours at 37° C.
Summary of the method: as §1

[8] = MHBc with 50 mg/L calcium, 18-20 hours at 37° C.

| Structure (SMILES) | C. diff MIC90 (Clostridium difficile) [µg/mL] | Sa399 MIC ([1]; ATCC 43300) [µg/mL] | Efs201 MIC ([2]; ATCC 49452) [µg/mL] | Efm14 MIC ([3]; ATCC 6569) [µg/mL] | Sa42 MIC ([4]; ATCC 29213) [µg/mL] | Efm384 MIC [5] [µg/mL] | Sa278 MIC [6] [µg/mL] | Efs312 MIC [7] [µg/mL] | Sa399 MIC [1, 8] [µg/mL] | Efs201 MIC [2, 8] [µg/mL] | Efm14 MIC [3, 8] [µg/mL] | Sa42 MIC [4, 8] [µg/mL] |
| --- | --- | --- | --- | --- | --- | --- | --- | --- | --- | --- | --- | --- |
| CCCCCCCCCCCCCCC(=O)N[C@@H](Cc1c[nH]c2ccccc12)C(=O)N[C@H](CC(N)=O)C(=O)N[C@@H](CC(=O)O)C(=O)N[C@@H]1C(=O)NCC(=O)N[C@@H](CCCN)C(=O)N[C@@H](CC(=O)O)C(=O)N[C@H](C)C(=O)N[C@@H](CC(=O)O)C(=O)NCC(=O)N[C@H](CO)C(=O)N[C@@H]([C@H](C)CC(=O)O)C(=O)N[C@@H](CC(=O)c2ccccc2N)C(=O)O[C@@H]1C [Compound 7] | 16 | 0.5 | 0.25 | 0.5 | 1 | 4 | 2 | 4 | – | – | – | – |
| CC(C)CCCCCCCCCC(=O)N[C@@H](Cc1c[nH]c2ccccc12)C(=O)N[C@H](CC(N)=O)C(=O)N[C@@H](CC(=O)O)C(=O)N[C@@H]1C(=O)NCC(=O)N[C@@H](CCCN)C(=O)N[C@@H](CC(=O)O)C(=O)N[C@H](C)C(=O)N[C@@H](CC(=O)O)C(=O)NCC(=O)N[C@H](CO)C(=O)N[C@@H]([C@H](C)CC(=O)O)C(=O)N[C@@H](CC(=O)c2ccccc2N)C(=O)O[C@@H]1C [Compound 10] | 1 | 0.25 | 0.13 | 1 | 0.25 | 4 | 1 | >32 | – | – | – | – |
| CC(C)CCCCCCCCCCC(=O)N[C@@H](Cc1c[nH]c2ccccc12)C(=O)N[C@H](CC(N)=O)C(=O)N[C@@H](CC(=O)O)C(=O)N[C@@H]1C(=O)NCC(=O)N[C@@H](CCCN)C(=O)N[C@@H](CC(=O)O)C(=O)N[C@H](C)C(=O)N[C@@H](CC(=O)O)C(=O)NCC(=O)N[C@H](CO)C(=O)N[C@@H]([C@H](C)CC(=O)O)C(=O)N[C@@H](CC(=O)c2ccccc2N)C(=O)O[C@@H]1C [Compound 11] | 1 | 0.25 | 1 | 1 | 0.125 | 4 | 0.5 | 16 | – | – | – | – |
| CCCCCC1CCC(NC(=O)N[C@@H](Cc2c[nH]c3ccccc23)C(=O)N[C@H](CC(N)=O)C(=O)N[C@@H](CC(=O)O)C(=O)N[C@@H]2C(=O)NCC(=O)N[C@@H](CCCN)C(=O)N[C@@H](CC(=O)O)C(=O)N[C@H](C)C(=O)N[C@@H](CC(=O)O)C(=O)NCC(=O)N[C@H](CO)C(=O)N[C@@H]([C@H](C)CC(=O)O)C(=O)N[C@@H](CC(=O)c3ccccc3N)C(=O)O[C@@H]2C)CC1 (stereo partly drawn) [Compound 17] | 1 | – | – | – | – | 16 | 0.25 | >32 | 0.25 | 1 | 1 | 0.25 |
| CCCCCCC12CCC(C(=O)N[C@@H](Cc3c[nH]c4ccccc34)C(=O)N[C@H](CC(N)=O)C(=O)N[C@@H](CC(=O)O)C(=O)N[C@@H]3C(=O)NCC(=O)N[C@@H](CCCN)C(=O)N[C@@H](CC(=O)O)C(=O)N[C@H](C)C(=O)N[C@@H](CC(=O)O)C(=O)NCC(=O)N[C@H](CO)C(=O)N[C@@H]([C@H](C)CC(=O)O)C(=O)N[C@@H](CC(=O)c4ccccc4N)C(=O)O[C@@H]3C)(CC1)CC2 [Compound 23] | 0.5 | 0.5 | 0.5 | 0.5 | 0.50 | 4 | 1 | 4 | – | – | – | – |
| C[C@H](CC(=O)O)[C@@H]1NC(=O)[C@@H](CO)NC(=O)CNC(=O)[C@H](CC(=O)O)NC(=O)[C@@H](C)NC(=O)[C@H](CC(=O)O)NC(=O)[C@H](CCCN)NC(=O)CNC(=O)[C@@H](NC(=O)[C@H](CC(=O)O)NC(=O)[C@@H](CC(N)=O)NC(=O)[C@H](Cc2c[nH]c3ccccc23)NC(=O)CCCCC2CCCCC2)[C@@H](C)OC(=O)[C@H](CC(=O)c2ccccc2N)NC1=O [Compound 24] | 4 | 1 | 2 | 4 | 1 | 32 | 8 | >32 | – | – | – | – |
